Experimental data: patent US20150025031A1, “METABOLIC DOWNREGULATION FOR CELL SURVIVAL” (WAKE FOREST UNIVERSITY HEALTH SCIENCES, priority 2012, published 2015)
Read-outs that look alike come from different tables or passages of the source.

Tests used:
C2C12 mouse myoblasts [1] = conditions: 5 mM
C2C12 mouse myoblasts [2] = conditions: 5 mM; for cellular metabolism under hypoxia: MTS
C2C12 murine myoblasts = assay: C2C12 cell counts (PicoGreen dsDNA) under 0.1% hypoxia, then normoxia; format: cell-based
Method: C2C12 murine myoblasts (ATCC) were cultured in a growth medium containing Dulbecco's modified Eagle's medium (DMEM, Gibco) supplemented with 10% FBS, 500 U/mL penicillin and 500 μg/mL streptomycin.
(§1) Hypoxic condition was maintained with a gas mixture containing 0.1% O2, 5% CO2 and 94.9% N2 at 37° C. and full humidity in an X-Vivo System (Biospherix). […] The hypoxic groups were then placed to the hypoxic chamber and incubated up to day 11, whereas the normoxic group continued to be incubated in the regular incubator. No medium change was made on both normoxic and hypoxic groups up to day 11. After transfer to normoxic conditions, cells were cultured in the regular incubator with an exchange of no adenosine-containing, fresh medium every third day.
Cell proliferation of each group was determined by a Quanti-iT PicoGreen dsDNA Kit (Invitrogen). After washed with PBS, cells were lysed with 55 μL of RIPA buffer (Sigma) on ice for 5 min, then the supernatants were mixed with an equal volume of PicoGreen dsDNA quantitation reagent, a fluorescent DNA dye (excitation at 480 nm; emission at 520 nm). The DNA content was quantified using a SpectraMax M5 microplate reader (Molecular Devices). The number of cells was calculated using a standard curve plotted from fluorescent readings of serial dilutions of a known concentration of cells.
Cell viability was visualized using a calcein AM (Invitrogen) where viable cells fluoresce green through the reaction of calcein AM.

C2C12 cells [3] = assay: Intracellular ATP level of C2C12 cells under hypoxia; format: cell-based, murine; conditions: 5 mM adenosine
Method: as §1
Intracellular ATP was measured by using the ATP Bioluminescence Assay Kit HS II (Roche Applied Science). Cells were lysed with 50 μL of lysis buffer and transferred into a well, then 50 μl of luciferase reagent was added to it. After mixing, the light emitted was measured and integrated for 10 seconds by using a SpectraMax M5 luminometer (Molecular Devices). The blank value (from a well containing no ATP) was subtracted from each sample's raw data. ATP concentrations were calculated from the linear part of the standard curve prepared with serial dilutions of a known concentration of ATP and expressed as moles per cell. This, in turn, was re-calculated to a percent ATP of that expressed in the cells grown under normoxic condition.

Soleus muscle tissues = assay: Survival of soleus muscle tissue under hypoxia (H&E, EthD-1 dead assay); format: cell-based, Sprague Dawley rats; conditions: 5 mM adenosine, 10 days hypoxic culture
Method: Soleus muscle tissues dissected immediately after sacrifice of Sprague Dawley rats (17 weeks old, 380-400 g, Harlan) were assigned to one of three groups in the growth medium: (1) native tissue group (2) no adenosine-treated hypoxic group and (3) hypoxic group with 5 mM adenosine supplemented in 2 mL of medium. The media was changed every third day. At day 10, a half of the tissue sample was fixed in 10% neutral buffered formalin (Sigma-Aldrich), 6 μm sections were generated by a cryotome (Leica), and stained with hematoxyline and eosin (H&E). Microscopic analysis was performed using a light microscope (Zeiss). Dead assay was assessed on the remaining tissues using 4 μM ethidium homodimer-1 (EthD-1, Invitrogen) to stain dead cells with damaged cell membranes. The stained sections were observed using a fluorescent microscope (Leica). The number of dead cells was quantitated using the “analyze particle” method with Image J software (U.S. National Institute of Health) on the fluorescence images, and its percentage was calculated based on the number of DAPI-stained cells on each section.

[4] = tested on: Rat tibialis anterior (TA) muscle tissues; assay: In vitro ischemic tibialis anterior muscle tissue survival (H&E, TUNEL); format: cell-based, Sprague Dawley rats; conditions: 5 mM injected, 3 days incubation
Method: Rat tibialis anterior (TA) muscle tissues were dissected immediately after sacrifice of Sprague Dawley rats (17 weeks old, 380-400 g, Harlan), injected with blank, 5 mM of adenosine or cladribine, and then incubated in 5 mL of complete media for 3 days.
The tissue samples were fixed in 10% neutral buffered formalin (Sigma-Aldrich), 6 μm sections were generated by a cryotome (Leica), and stained with hematoxyline and eosin (H&E) and with TUNEL staining. Microscopic analyses were performed using a light microscope (Zeiss M1) and ImagePro software.

[5] = tested on: C2C12 cells, murine myoblasts; assay: MTS metabolic activity of C2C12 cells under hypoxia with adenosine (Example 1); format: cell-based
Method: Another group receiving daily doses of adenosine ([…], achieved by serial dilution) was incubated for up to 7 days under hypoxia and then placed back into normoxic conditions without additional supply of adenosine. Adenosine was refreshed by the daily exchange of media in which adenosine was completely dissolved. Media to be used under hypoxia was placed in the hypoxic chamber 24 hr prior to use for deoxygenation down to 2% O2. The metabolic activity of viable cells at each pre-determined time point was assessed using an MTS assay, which measures mitochondrial activity of cells.

C2C12 cells [6] = assay: Myotube formation of hypoxia-survived C2C12 cells; format: cell-based, murine; conditions: after 11 days adenosine under hypoxia, 2% horse serum medium 6 days
Method: After C2C12 cells that survived the hypoxic stress in the presence of adenosine were transferred to normoxic conditions without further supply of adenosine, they were cultured continuously for 3 days in the growth medium followed by 2% horse serum-containing medium for another 6 days. […] Nuclei were counterstained with DAPI (Vector). Photomicrographs were obtained using a Leica inverted fluorescence microscope. Myotube formation was also observed by Giemsa staining (1:20, Sigma-Aldrich) using a Zeiss upright light microscope.

With `Nc1ncnc2c1ncn2[C@@H]1O[C@H](CO)[C@@H](O)[C@H]1O` [adenosine] the “proliferation after drug and hypoxia removed” value (C2C12 mouse myoblasts [1]; treated with ADA) was “failed to revive after the hypoxia and drug was removed”, the “proliferation after drug and hypoxia removed” value (C2C12 mouse myoblasts [1]; used alone (no ADA)) was “started to regain their normal proliferation” and the “cell population under hypoxic condition” value (C2C12 mouse myoblasts [1]; used alone (no ADA), 7 days hypoxia) was “maintain cell population significantly lower than the no treatment control”. For the same compound, the “cellular metabolism under hypoxia” value (C2C12 mouse myoblasts [2]; treated with ADA) was “failed to reduce cellular metabolism and showed increased metabolic activity when compared to control”, the “metabolism after drug and hypoxia removed” value (C2C12 mouse myoblasts [2]; used alone (no ADA)) was “recovered normal metabolism” and the “cellular metabolism under hypoxia” value (C2C12 mouse myoblasts [2]; used alone (no ADA)) was “minimized cellular metabolism”. The “growth recovery after transfer to normoxic conditions” value (C2C12 murine myoblasts; 0.05 mM adenosine, after 11 days 0.1% hypoxia) was “never recovered even after transfer to normoxic conditions”, the “number of cells maintained after 11 days of hypoxic stress” value (C2C12 murine myoblasts; 1, 2 and 5 mM adenosine, 0.1% hypoxia, day 11) was “two to four” and the “proliferation after transfer to normal oxygen tension” value (C2C12 murine myoblasts; 1, 2 and 5 mM adenosine, after 11 days 0.1% hypoxia) was “resumed their proliferation at a growth rate comparable to that in normoxic cells”. The “most effective adenosine concentration” value (C2C12 murine myoblasts; C2C12 survival, 0.1% hypoxia) was 5 mM, the “time for onset of re-proliferation” value (C2C12 murine myoblasts; after transfer to normoxia, 1, 2, 5 mM) was “concentration-dependent” and the “intracellular ATP level, percentage of that in normoxic cells” value (C2C12 cells [3]; 0.1% hypoxia, day 11) was 18%. For the same compound, the “intracellular ATP level vs control cells” value (C2C12 cells [3]; throughout the hypoxic duration, p<0.05) was “consistently higher ATP level”, the “degree of muscle damage (H&E)” value (Soleus muscle tissues) was “tissues cultured without adenosine showed more damage than those treated with 5 mM adenosine” and the “dead cells as percentage of number of DAPI-stained cells” value (Soleus muscle tissues; EthD-1) was 46%. The “number of live nuclei (TUNEL)” value [4] was “slightly increased live nuclei”, the “restoration of normal proliferation rate after long-term exposure” value ([5]; 22 days under adenosine, various doses) was “still demonstrated the ability to restore its normal proliferation rate” and the “cellular (metabolic) activity under hypoxic conditions” value ([5]; C2C12, 0.1% O2, daily adenosine up to 7 days, MTS) was “maintained a steady state of cellular activity”. The “minimum effective concentration of adenosine” value ([5]; C2C12, 0.1% O2 hypoxia, MTS metabolic activity) was “about 1 mM”, the “resumption of normal metabolic activity after adenosine removal” value ([5]; adenosine removed at day 7, back to normoxia) was “resumed their normal metabolic activity two days after adenosine was removed at day 7” and the “myotube formation (differentiating capability)” value (C2C12 cells [6]) was “showed capability of forming myotubes”.
